The values below come from US11332468B2, “Azaindole derivatives as Rho-kinase inhibitors” (CHIESI FARMACEUTICI S.p.A., priority 2017, dated 2022).

One experiment deals with Rho kinase 2 (ROCK2) (Homo sapiens, UniProt O75116). Put plainly: In vitro Rho kinase inhibitory activity assay (ADP-Glo), ROCK2. The format is biochemical. To be noted: Ki by Cheng-Prusoff from IC50; 10 μM ATP; range of activity. As for the experimental part:
(§1) The effectiveness of compounds of the invention to inhibit Rho kinase activity can be determined in a […] assay containing 40 mM Tris pH7.5, 20 mM MgC2 0.1 mg/ml BSA, 50 μM DTT and 2.5 μM peptide substrate (Myelin Basic Protein) using an ADP-Glo kit (Promega). Compounds were dissolved in DMSO such that the final concentration of DMSO was 1% in the assay. All reactions/incubations are performed at 25° C. Compound (2 ul) and either Rho kinase 1 or 2 (4 μl) were mixed and incubated for 30 mins. Reactions were initiated by addition of ATP (4 μl) such that the final concentration of ATP in the assay was 10 μM. After a 1 hour incubation 10 μl of ADP-Glo Reagent was added and after a further 45 minute incubation 20 ul of Kinase Detection Buffer was added and the mixture incubated for a further 30 minutes. The luminescent signal was measured on a luminometer. […] Compounds were tested in dose-response format and the inhibition of kinase activity was calculated at each concentration of compound. To determine the IC50 (concentration of compound required to inhibit 50% of the enzyme activity) data were fit to a plot of % inhibition vs Log10 compound concentration using a sigmoidal fit with a variable slope and fixing the maximum to 100% and the minimum to 0%. To determine the Ki values the Cheng-Prusoff equation was utilized (Ki=IC50/(1+[S]/Km)
A general note: In ADP-Glo the light output rises with the ADP produced.

The target in the next experiment is Rho kinase 1 (ROCK1) (Homo sapiens, UniProt Q13464). Nature of the experiment: In vitro Rho kinase inhibitory activity assay (ADP-Glo), ROCK1. It is filed as biochemical. Conditions: Ki by Cheng-Prusoff from IC50; 10 μM ATP; range of activity. As for the experimental part: as §1
Rho kinase 1 (ROCK1), sequence (Q13464 whole entry): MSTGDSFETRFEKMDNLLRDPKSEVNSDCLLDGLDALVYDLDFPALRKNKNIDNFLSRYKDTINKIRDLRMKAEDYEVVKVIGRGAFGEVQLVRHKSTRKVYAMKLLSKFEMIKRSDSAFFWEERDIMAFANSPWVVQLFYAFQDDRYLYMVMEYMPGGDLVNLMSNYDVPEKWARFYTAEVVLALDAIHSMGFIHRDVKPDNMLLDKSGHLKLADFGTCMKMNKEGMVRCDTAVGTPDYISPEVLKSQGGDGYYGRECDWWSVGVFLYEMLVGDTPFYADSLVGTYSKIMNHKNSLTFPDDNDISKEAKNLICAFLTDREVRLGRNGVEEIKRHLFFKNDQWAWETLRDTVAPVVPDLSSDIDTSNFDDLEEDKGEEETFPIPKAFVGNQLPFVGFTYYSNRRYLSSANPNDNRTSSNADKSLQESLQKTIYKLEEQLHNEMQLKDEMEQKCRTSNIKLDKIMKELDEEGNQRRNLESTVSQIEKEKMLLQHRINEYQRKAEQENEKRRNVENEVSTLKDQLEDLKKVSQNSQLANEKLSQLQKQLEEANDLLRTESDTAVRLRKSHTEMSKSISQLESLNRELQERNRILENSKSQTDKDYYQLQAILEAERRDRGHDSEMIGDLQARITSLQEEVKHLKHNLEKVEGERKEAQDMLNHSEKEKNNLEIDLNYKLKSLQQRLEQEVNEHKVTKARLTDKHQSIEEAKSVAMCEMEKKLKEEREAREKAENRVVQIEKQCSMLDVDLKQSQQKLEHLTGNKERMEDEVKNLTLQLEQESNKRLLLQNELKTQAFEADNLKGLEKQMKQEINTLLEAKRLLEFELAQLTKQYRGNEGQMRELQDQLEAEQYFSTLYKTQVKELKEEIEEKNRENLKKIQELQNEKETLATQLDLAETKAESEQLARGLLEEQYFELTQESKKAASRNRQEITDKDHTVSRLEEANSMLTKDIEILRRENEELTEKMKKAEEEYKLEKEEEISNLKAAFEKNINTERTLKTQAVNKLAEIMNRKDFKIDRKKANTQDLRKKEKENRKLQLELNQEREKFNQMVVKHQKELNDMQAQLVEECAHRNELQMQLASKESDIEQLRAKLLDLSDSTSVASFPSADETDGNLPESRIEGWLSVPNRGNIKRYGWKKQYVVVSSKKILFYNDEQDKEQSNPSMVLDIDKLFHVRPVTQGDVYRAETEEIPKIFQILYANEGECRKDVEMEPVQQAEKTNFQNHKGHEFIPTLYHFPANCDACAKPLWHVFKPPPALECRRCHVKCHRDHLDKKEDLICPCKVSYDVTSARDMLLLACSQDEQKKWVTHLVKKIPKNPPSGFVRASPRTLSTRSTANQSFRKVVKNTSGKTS

Molecules are shown by their SMILES.

Rho kinase 2 (ROCK2), sequence (O75116 whole entry): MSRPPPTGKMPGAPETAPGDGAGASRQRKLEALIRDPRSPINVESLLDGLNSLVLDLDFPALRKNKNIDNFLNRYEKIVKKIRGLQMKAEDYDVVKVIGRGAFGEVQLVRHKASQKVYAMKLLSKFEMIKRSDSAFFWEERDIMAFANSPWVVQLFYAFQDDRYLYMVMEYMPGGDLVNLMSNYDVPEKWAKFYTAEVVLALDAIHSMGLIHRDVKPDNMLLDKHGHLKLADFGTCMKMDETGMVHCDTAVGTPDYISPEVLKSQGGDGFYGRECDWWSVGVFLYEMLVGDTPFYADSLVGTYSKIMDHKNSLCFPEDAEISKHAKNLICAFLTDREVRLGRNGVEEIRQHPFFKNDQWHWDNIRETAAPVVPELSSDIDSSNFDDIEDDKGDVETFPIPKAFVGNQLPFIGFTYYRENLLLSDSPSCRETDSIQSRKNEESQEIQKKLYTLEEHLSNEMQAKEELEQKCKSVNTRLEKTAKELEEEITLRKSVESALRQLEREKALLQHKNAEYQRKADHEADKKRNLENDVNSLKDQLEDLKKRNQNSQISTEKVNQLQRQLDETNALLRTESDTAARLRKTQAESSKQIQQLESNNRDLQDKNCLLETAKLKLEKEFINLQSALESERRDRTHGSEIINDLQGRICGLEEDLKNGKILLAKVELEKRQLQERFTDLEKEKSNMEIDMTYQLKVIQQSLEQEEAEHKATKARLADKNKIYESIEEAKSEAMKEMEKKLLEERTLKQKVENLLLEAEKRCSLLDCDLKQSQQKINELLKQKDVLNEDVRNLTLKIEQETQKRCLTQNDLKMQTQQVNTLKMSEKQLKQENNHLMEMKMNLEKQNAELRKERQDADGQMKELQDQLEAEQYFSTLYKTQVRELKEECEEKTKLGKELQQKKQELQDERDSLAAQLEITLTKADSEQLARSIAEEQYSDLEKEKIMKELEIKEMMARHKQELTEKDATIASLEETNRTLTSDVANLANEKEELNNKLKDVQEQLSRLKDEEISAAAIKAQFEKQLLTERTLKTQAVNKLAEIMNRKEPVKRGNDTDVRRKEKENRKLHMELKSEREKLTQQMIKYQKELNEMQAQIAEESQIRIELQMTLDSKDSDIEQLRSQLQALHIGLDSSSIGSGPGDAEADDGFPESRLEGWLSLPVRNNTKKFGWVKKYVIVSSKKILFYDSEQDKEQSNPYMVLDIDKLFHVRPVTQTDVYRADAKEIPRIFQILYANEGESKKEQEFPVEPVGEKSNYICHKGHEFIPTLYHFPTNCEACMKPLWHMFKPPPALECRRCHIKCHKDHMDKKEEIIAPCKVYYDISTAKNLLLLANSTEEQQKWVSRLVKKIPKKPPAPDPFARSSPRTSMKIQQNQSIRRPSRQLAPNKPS

Broadly, the Ki is a dissociation constant, usually derived from enzyme kinetics or from competition with a known ligand. As to `Cc1c[nH]c2nccc(Oc3ccc(CNC4CCN(C)CC4)cc3)c12` [Example 30, 1-methyl-N-(4-((3-methyl-1H-pyrrolo[2,3-b]pyridin-4-yl)oxy)benzyl)piperidin-4-amine], the Ki on Rho kinase 2 (ROCK2) and on Rho kinase 1 (ROCK1) was 5 to 50 nM throughout. Take `Cc1c[nH]c2ncnc(Oc3ccc4c(c3)CNCC4)c12` [Example 6, 7-((5-methyl-7H-pyrrolo[2,3-d]pyrimidin-4-yl)oxy)-1,2,3,4-tetrahydroisoquinoline]: the Ki at Rho kinase 2 (ROCK2) and at Rho kinase 1 (ROCK1) was 5 to 50 nM each time. With `Cc1c[nH]c2nccc(Oc3ccc(C4CCCN4)cc3)c12` (single isomer, unassigned) [Example 18A, 3-methyl-4-(4-(pyrrolidin-2-yl)phenoxy)-1H-pyrrolo[2,3-b]pyridine], the inhibition constant (Ki) at Rho kinase 2 (ROCK2) was less than 5 nM; at Rho kinase 1 (ROCK1), 5 to 50 nM.

On to `Cc1c[nH]c2nccc(Oc3ccc4c(c3)CCCNC4)c12` [Example 15, 7-((3-methyl-1H-pyrrolo[2,3-b]pyridin-4-yl)oxy)-2,3,4,5-tetrahydro-1H-benzo[c]azepine], for which the inhibition constant Ki at Rho kinase 2 (ROCK2) and on Rho kinase 1 (ROCK1) was 5 to 50 nM each time.

On to `Cc1c[nH]c2nccc(Oc3ccc(C4CCCN4)cc3)c12` (single isomer, unassigned) [Example 18B, 3-methyl-4-(4-(pyrrolidin-2-yl)phenoxy)-1H-pyrrolo[2,3-b]pyridine], for which, at Rho kinase 2 (ROCK2), the Ki lay in the range of 5 to 50 nM. On to `Cc1c[nH]c2nccc(Oc3ccc4c(c3)CCNC4)c12` [Example 11, 6-((3-methyl-1H-pyrrolo[2,3-b]pyridin-4-yl)oxy)-1,2,3,4-tetrahydroisoquinoline], for which the Ki on Rho kinase 2 (ROCK2) and on Rho kinase 1 (ROCK1) was 5 to 50 nM throughout.

As to `Cc1c[nH]c2nccc(Oc3ccc(CN(C)C)cc3)c12` [Example 29, N,N-dimethyl-1-(4-((3-methyl-1H-pyrrolo[2,3-b]pyridin-4-yl)oxy)phenyl)methanamine], the inhibition constant (Ki) on Rho kinase 2 (ROCK2) and at Rho kinase 1 (ROCK1) was 5 to 50 nM each time.

Regarding `Cc1c[nH]c2nccc(Oc3ccc(CN)cc3)c12` [Example 21, (4-((3-methyl-1H-pyrrolo[2,3-b]pyridin-4-yl)oxy)phenyl)methanamine], the inhibition constant (Ki) at Rho kinase 2 (ROCK2) is less than 5 nM; on Rho kinase 1 (ROCK1), 5 to 50 nM. For `Cc1c[nH]c2nccc(Oc3ccc(CN4CCN(C)CC4)cc3)c12` [Example 33, 3-methyl-4-(4-((4-methylpiperazin-1-yl)methyl)phenoxy)-1H-pyrrolo[2,3-b]pyridine], in that order: 5 to 50 nM and greater than 50 nM.

Regarding `Cc1c[nH]c2nccc(Oc3ccc(C(C)N)cc3)c12` (stereo not drawn) [Example 24, 1-(4-((3-methyl-1H-pyrrolo[2,3-b]pyridin-4-yl)oxy)phenyl)ethanamine], the results for the inhibition constant (Ki) at Rho kinase 2 (ROCK2) and on Rho kinase 1 (ROCK1) were less than 5 nM and 5 to 50 nM, respectively.

For the molecule `Cc1c[nH]c2nccc(Oc3ccc4c(c3)CCCC4N)c12` (stereo not drawn) [Example 26], the Ki on Rho kinase 2 (ROCK2) and at Rho kinase 1 (ROCK1) was 5 to 50 nM each time. Consider `CNCc1ccc(Oc2ccnc3[nH]cc(C)c23)cc1` [Example 3, N-methyl-1-(4-((3-methyl-1H-pyrrolo[2,3-b]pyridin-4-yl)oxy)phenyl)methanamine], for which the Ki on Rho kinase 2 (ROCK2) and on Rho kinase 1 (ROCK1) was 5 to 50 nM in each case. Turning to `Cc1c[nH]c2ncnc(Oc3ccc(CCN)cc3)c12` [Example 8, 2-(4-((5-methyl-7H-pyrrolo[2,3-d]pyrimidin-4-yl)oxy)phenyl)ethanamine], the Ki at Rho kinase 2 (ROCK2) and on Rho kinase 1 (ROCK1) was greater than 50 nM in each case. Consider `Cc1c[nH]c2nccc(Oc3ccc(C4CCNC4)cc3)c12` (stereo not drawn) [Example 20, 3-methyl-4-(4-(pyrrolidin-3-yl)phenoxy)-1H-pyrrolo[2,3-b]pyridine], for which the Ki on Rho kinase 2 (ROCK2) and at Rho kinase 1 (ROCK1) was less than 5 nM in each case. `Cc1c[nH]c2nccc(Oc3ccc4c(c3)CNCC4)c12` [Example 1, 7-((3-Methyl-1H-pyrrolo[2,3-b]pyridin-4-yl)oxy)-1,2,3,4-tetrahydroisoquinoline]: the Ki on Rho kinase 2 (ROCK2) and on Rho kinase 1 (ROCK1) was less than 5 nM each time. With `Cc1c[nH]c2nccc(Oc3ccc4c(c3)CC(N)C4)c12` (stereo not drawn) [Example 14, 5-((3-methyl-1H-pyrrolo[2,3-b]pyridin-4-yl)oxy)-2,3-dihydro-1H-inden-2-amine], the Ki was less than 5 nM at Rho kinase 2 (ROCK2) and 5 to 50 nM at Rho kinase 1 (ROCK1).

Consider `Cc1c[nH]c2nccc(Oc3ccc(C(C)N)cc3F)c12` (stereo not drawn) [Example 23, 1-(3-fluoro-4-((3-methyl-1H-pyrrolo[2,3-b]pyridin-4-yl)oxy)phenyl)ethanamine], for which the Ki on Rho kinase 2 (ROCK2) and on Rho kinase 1 (ROCK1) was less than 5 nM each time.

For `Cc1c[nH]c2nccc(Oc3ccc(C4CNC4)cc3)c12` [Example 17, 4-(4-(azetidin-3-yl)phenoxy)-3-methyl-1H-pyrrolo[2,3-b]pyridine], the results for the Ki at Rho kinase 2 (ROCK2) and at Rho kinase 1 (ROCK1) were less than 5 nM and 5 to 50 nM, respectively. `Cc1c[nH]c2nccc(Oc3ccc(C(C)(C)N)cc3)c12` [Example 25, 2-(4-((3-methyl-1H-pyrrolo[2,3-b]pyridin-4-yl)oxy)phenyl)propan-2-amine]: the inhibition constant Ki is less than 5 nM on Rho kinase 2 (ROCK2) and 5 to 50 nM on Rho kinase 1 (ROCK1). For `Cc1c[nH]c2nccc(Oc3ccc4c(c3)CCNCC4)c12` [Example 5, 7-((3-methyl-1H-pyrrolo[2,3-b]pyridin-4-yl)oxy)-2,3,4,5-tetrahydro-1H-benzo[d]azepine], in that order: less than 5 nM and less than 5 nM. Turning to `Cc1c[nH]c2nccc(Oc3ccc4c(c3)CN(C)CC4)c12` [Example 10, 2-methyl-7-((3-methyl-1H-pyrrolo[2,3-b]pyridin-4-yl)oxy)-1,2,3,4-tetrahydroisoquinoline], the inhibition constant Ki at Rho kinase 2 (ROCK2) and at Rho kinase 1 (ROCK1) was less than 5 nM in each case. Consider `Cc1c[nH]c2nccc(Oc3ccc4c(c3)CN[C@@H](CO)C4)c12` [Example 39, (R)-(7-((3-Methyl-1H-pyrrolo[2,3-b]pyridin-4-yl)oxy)-1,2,3,4-tetrahydroisoquinolin-3-yl)methanol], for which the Ki at Rho kinase 2 (ROCK2) and at Rho kinase 1 (ROCK1) was less than 5 nM in each case. Take `Cc1c[nH]c2ncnc(Oc3ccc(CN)cc3)c12` [Example 9, (4-((5-methyl-7H-pyrrolo[2,3-d]pyrimidin-4-yl)oxy)phenyl)methanamine]: the Ki on Rho kinase 2 (ROCK2) and at Rho kinase 1 (ROCK1) was greater than 50 nM in each case. With `Cc1c[nH]c2nccc(Oc3ccc(CN4CCC5(CCNC5)C4)cc3)c12` (stereo not drawn) [Example 32, 4-(4-(2,7-diazaspiro[4.4]nonan-2-ylmethyl)phenoxy)-3-methyl-1H-pyrrolo[2,3-b]pyridine], the Ki on Rho kinase 2 (ROCK2) and at Rho kinase 1 (ROCK1) was 5 to 50 nM in each case. As to `N#Cc1c[nH]c2nccc(Oc3ccc4c(c3)CNCC4)c12` [Example 34, 4-((1,2,3,4-Tetrahydroisoquinolin-7-yl)oxy)-1H-pyrrolo[2,3-b]pyridine-3-carbonitrile], the Ki at Rho kinase 2 (ROCK2) and at Rho kinase 1 (ROCK1) was less than 5 nM throughout. Regarding `Cc1c[nH]c2nccc(Oc3ccc(C4CCCN4)cc3)c12` (racemic) [Example 18, 3-methyl-4-(4-(pyrrolidin-2-yl)phenoxy)-1H-pyrrolo[2,3-b]pyridine], the inhibitory constant (Ki) on Rho kinase 2 (ROCK2) and at Rho kinase 1 (ROCK1) was 5 to 50 nM throughout. `Cc1c[nH]c2nccc(Oc3ccc(C[C@H](N)CO)cc3)c12` [Example 37, (S)-2-amino-3-(4-((3-methyl-1H-pyrrolo[2,3-b]pyridin-4-yl)oxy)phenyl)propan-1-ol]: the inhibition constant (Ki) at Rho kinase 2 (ROCK2) and at Rho kinase 1 (ROCK1) was less than 5 nM throughout. `Cc1c[nH]c2nccc(Oc3ccc(CNC4CCOCC4)cc3)c12` [Example 28, N-(4-((3-methyl-1H-pyrrolo[2,3-b]pyridin-4-yl)oxy)benzyl)tetrahydro-2H-pyran-4-amine]: the Ki on Rho kinase 2 (ROCK2) and on Rho kinase 1 (ROCK1) was 5 to 50 nM each time.

Regarding `Cc1c[nH]c2nccc(Oc3ccc(C4CNCCN4)cc3)c12` (stereo not drawn) [Example 13, 3-methyl-4-(4-(piperazin-2-yl)phenoxy)-1H-pyrrolo[2,3-b]pyridine], the Ki at Rho kinase 2 (ROCK2) and on Rho kinase 1 (ROCK1) was 5 to 50 nM in each case. In the case of `Cc1c[nH]c2nccc(Oc3ccc(CCN4CCCC4)cc3)c12` [Example 22, 3-methyl-4-(4-(2-(pyrrolidin-1-yl)ethyl)phenoxy)-1H-pyrrolo[2,3-b]pyridine], the Ki at Rho kinase 2 (ROCK2) and at Rho kinase 1 (ROCK1) was 5 to 50 nM in each case. Take `Cc1c[nH]c2nccc(Oc3ccc(CCN)cc3)c12` [Example 19, 2-(4-((3-methyl-1H-pyrrolo[2,3-b]pyridin-4-yl)oxy)phenyl)ethanamine]: the inhibitory constant (Ki) on Rho kinase 2 (ROCK2) and at Rho kinase 1 (ROCK1) was less than 5 nM each time.

For `Cc1c[nH]c2nccc(Oc3ccc4c(c3)CNC4)c12` [Example 2, 4-(isoindolin-5-yloxy)-3-methyl-1H-pyrrolo[2,3-b]pyridine], the Ki at Rho kinase 2 (ROCK2) and on Rho kinase 1 (ROCK1) was less than 5 nM throughout.

With `Cc1c[nH]c2ncnc(Oc3ccc(C4CCNC4)cc3)c12` (stereo not drawn) [Example 7, 5-methyl-4-(4-(pyrrolidin-3-yl)phenoxy)-7H-pyrrolo[2,3-d]pyrimidine], the inhibition constant (Ki) on Rho kinase 2 (ROCK2) and on Rho kinase 1 (ROCK1) was greater than 50 nM in each case. As for `NCCc1ccc(Oc2ccnc3[nH]ccc23)cc1` [Example 4, 2-(4-((1H-pyrrolo[2,3-b]pyridin-4-yl)oxy)phenyl)ethanamine], the inhibitory constant (Ki) on Rho kinase 2 (ROCK2) and on Rho kinase 1 (ROCK1) was 5 to 50 nM in each case.

With `Cc1c[nH]c2nccc(Oc3ccc(C(N)CO)cc3)c12` (stereo not drawn) [Example 38, 2-amino-2-(4-((3-methyl-1H-pyrrolo[2,3-b]pyridin-4-yl)oxy)phenyl)ethanol], the inhibition constant (Ki) on Rho kinase 2 (ROCK2) was less than 5 nM; on Rho kinase 1 (ROCK1), 5 to 50 nM.
